The values below come from PMC8875392, “Design and Characterization of Myristoylated and Non-Myristoylated Peptides Effective against Candida spp. Clinical Isolates” (International Journal of Molecular Sciences, 2022).

≈ marks a conversion by molar mass, not a printed value. Where two headings read alike, the source gives them in different places. Where a SMILES comes first, the peptide text is derived from it. The star is where a group is joined. Myristoyl = CCCCCCCCCCCCCC(=O)*

The test system of data set [1] is C. albicans clinical isolates. In kind it is cell-based, Candida albicans. To be noted: 16 h. The procedure:
(§1) The antifungal activity of AMPs was determined against 50 clinical isolates, 10 for each of the following Candida species: C. albicans, C. tropicalis, C. glabrata, C. parapsilosis, and C. auris. The latter were derived from patients with positive blood cultures in four hospitals in India, with known resistance profiles to fluconazole, voriconazole, and echinocandins. Yeast cells were grown in Brain Heart Infusion (BHI) medium (Sigma-Aldrich, Gillingham, UK) for 16 h at 37 °C in a 150-rpm orbital shaker. Cells were then sub-inoculated in a fresh BHI medium and grown to an optical density (OD) of 0.3. The turbidity of the inoculum was adjusted to 0.5 McFarland and diluted 1:500 in RPMI 1640 broth, corresponding to around […].
(§2) Minimal inhibitory concentrations (MICs) were determined by Broth microdilution susceptibility tests, according to The Clinical and Laboratory Standards Institute (CLSI) international guidelines. A fungal suspension of 0.5 MacFarland was diluted 1:500 in RPMI 1640 broth and incubated in 96 multi-well plates containing AMPs at different concentrations ranging from 0.125 to 256 μg/mL. In this range of concentration, lipopeptides were completely soluble. […] The MIC90 represents the value at which ≥90% of the strains within a test population were inhibited.

Data set [2] has as its system C. glabrata clinical isolates. In kind it is cell-based, Candida glabrata. To be noted: 16 h. The procedure: as §1, §2
Data set [3] relates to C. parapsilosis clinical isolates. In kind it is cell-based, Candida parapsilosis. The protocol: as §1, §2
In data set [4] the test system is C. tropicalis clinical isolates. In kind it is cell-based, Candida tropicalis. The following applies: for MIC90: clinical isolates, 16 h; for MIC: CLSI broth microdilution, RPMI 1640. The procedure:
as §1, §2
In general terms: Dilution methods test growth across graded concentrations, often in twofold steps.

The test system of data set [5] is Galleria mellonella larvae. Nature of the data set: In vivo peptide toxicity in Galleria mellonella model. The following applies: uninfected larvae, groups of ten, peptide 640 µg/mL, single injection, 30 °C. The protocol: (§3) Multidrug-resistant C. auris was chosen as a representative species for in vivo studies. […] Groups of ten G. mellonella larvae were infected with C. auris and treated with the Pep-B and Myr-B peptides at a concentration of 640 µg/mL (about 400 µM).
(§4) Ten larvae (250–320 mg each) were selected at random for each step in the procedure. Any larvae with darkening of the cuticle were discarded. The test compounds and yeast were injected into the hemocoel in water buffer through the last left proleg (Insumed 30G Pic, Italy, syringe volume 0.5 mL, needle size 30G). The larvae were incubated in the dark for 3 days, and mortality was recorded daily.
(§5) For the peptide efficacy experiment, ten larvae were injected into the last left proleg with a pre-determined infective dose of yeast and the dose of peptides at the same time in a final volume of 10 μL and incubated at 30 °C. Each step in the procedure included six groups of 10 larvae: C. auris-infected larvae (10^7 CFU), infected and treated larvae with peptide B (640 μg/mL), infected and treated larvae with peptide Myr-B (640 μg/mL), treated larvae with peptide B (640 μg/mL), treated larvae with peptide Myr-B (640 μg/mL), and vehicle-injected control (water). The mortality was recorded daily for 3 days.

A further data set concerns Candida auris. Nature of the data set: In vivo peptide efficacy in Galleria mellonella larvae infected with C. auris. The following applies: larvae infected with Candida auris 10^7 CFU, groups of ten, peptide 640 µg/mL injected at the same time, 30 °C. The procedure:
as §3, §4
An infective dose of yeast Candida auris was determined by injecting groups of ten larvae with a suspension at 10^5, 10^6, 10^7, and 10^8 colony-forming units (CFU) per injection. The larvae were incubated for 3 days at 30 °C. An infective dose was defined as the one that caused an immune response, recognizable by the darkening of the cuticle and able to kill approximately 50% of larvae after 24 h.
as §5

[6] abbreviates: isolate Candida parapsilosis 8, CLSI broth microdilution, RPMI 1640.
[7] abbreviates: isolate Candida parapsilosis 9, CLSI broth microdilution, RPMI 1640.
Where [8] appears, read: isolate Candida parapsilosis 10, CLSI broth microdilution, RPMI 1640.

Protocol for rabbit erythrocytes: The hemolytic assay was performed on rabbit erythrocytes (Rockland) maintained in Alsever’s solution (Innovative Research). Briefly, after the removal of Alsever’s solution, the erythrocytes were resuspended in PBS and counted in a hemocytometer. A suspension of 5,000,000 red blood cells was incubated with four dilutions (from 5 µm to 50 µm) of the six peptides in a 96-well microplate. As a negative control, erythrocytes were incubated without the peptides, while as a positive control, erythrocyte was added with triton 10% v/v. The plate was incubated at 37 °C for 2 h and subsequently centrifuged at 1200 rpm × 3 min to separate the pellet from the supernatant. The absorbance of the supernatant was measured at 492 nm. Each point was made in triplicate. The relative OD compared to the positive control defined the percentage of hemolysis [71]. Statistical analysis was performed using two-way ANOVA analysis followed by Bonferroni’s post-test.

For `CCCCCCCCCCCCCC(=O)N[C@@H](Cc1c[nH]c2ccccc12)C(=O)N[C@@H](CCCNC(=N)N)C(=O)NCC(=O)N[C@H](C(=O)N[C@H](C(=O)N[C@@H](CCCCN)C(=O)N[C@H](C(=O)N[C@H](C(=O)N[C@@H](CCCCN)C(=O)N[C@@H](CCCCN)C(=O)N[C@H](C(=O)O)C(C)C)C(C)C)C(C)C)[C@@H](C)O)[C@@H](C)CC` [Myr-B] (Myristoyl-WRGITKVVKKV-OH; C-terminus assumed), the MIC in data set [1] was found to be 16 mg/L (≈ 10.5 µM); in data set [3] (clinical isolates, 16 h), 32 mg/L (≈ 21 µM); in data set [3] (setting [6]) it was 32 mg/L (≈ 21 µM); in data set [3] (setting [7]) it was 32 mg/L (≈ 21 µM); in data set [3] (setting [8]), 32 mg/L (≈ 21 µM); in data set [4] (isolate Candida tropicalis 1) it was 8 mg/L (≈ 5.25 µM). The MIC in data set [4] (isolate Candida tropicalis 2), in data set [4] (isolate Candida tropicalis 3), in data set [4] (isolate Candida tropicalis 4), in data set [4] (isolate Candida tropicalis 5), in data set [4] (isolate Candida tropicalis 6) and in data set [4] (isolate Candida tropicalis 7) was 8 mg/L (≈ 5.25 µM) in each case. In addition, the MIC in data set [4] (isolate Candida tropicalis 8), in data set [4] (isolate Candida tropicalis 9) and in data set [4] (isolate Candida tropicalis 10) was 8 mg/L (≈ 5.25 µM) each time. Moreover, the MIC90 in data set [1] is 16 mg/L (≈ 10.5 µM); in data set [2], 32 mg/L (≈ 21 µM); in data set [3] (clinical isolates, 16 h) it was 32 mg/L (≈ 21 µM); in data set [4] it was 8 mg/L (≈ 5.25 µM). The “MIC (Range)” value in data set [2] was in the range of 16 to 32 mg/L. In data set [5], the “Peptide toxicity, DAY 1 Dead” value is 1. Further, the “Peptide toxicity, DAY 2 Dead” value in data set [5] worked out at 1. The “Peptide toxicity, DAY 3 Dead” value in data set [5] amounted to 1. Also, the “Peptide efficacy, DAY 1 Alive” value with Candida auris worked out at 8. For the same compound, the “Peptide efficacy, DAY 1 Dead” value in the data set with Candida auris was found to be 2. For the same compound, the “Peptide efficacy, DAY 2 Alive” value with Candida auris was 3. In addition, the “Peptide efficacy, DAY 2 Dead” value in the data set with Candida auris was found to be 7. Also, the “Peptide efficacy, DAY 3 Alive” value with Candida auris came out at 3. Besides, the “Peptide efficacy, DAY 3 Dead” value with Candida auris worked out at 7.
Regarding `CCCCCCCCCCCCCC(=O)N[C@@H](Cc1c[nH]c2ccccc12)C(=O)N[C@@H](Cc1ccccc1)C(=O)NCC(=O)N[C@@H](CCCCN)C(=O)N[C@@H](CC(C)C)C(=O)N[C@@H](Cc1ccc(O)cc1)C(=O)N[C@@H](CCCNC(=N)N)C(=O)NCC(=O)N[C@H](C(=O)N[C@H](C(=O)N[C@@H](CCCCN)C(=O)O)[C@@H](C)O)[C@@H](C)CC` [Myr-A] (Myristoyl-WFGKLYRGITK-OH; C-terminus assumed), the MIC90 in data set [1] stood at 16 mg/L (≈ 10.1 µM); in data set [2], 16 mg/L (≈ 10.1 µM); in data set [3] (clinical isolates, 16 h) it was 16 mg/L (≈ 10.1 µM); in data set [4] it was 16 mg/L (≈ 10.1 µM). For the same compound, the “MIC (Range)” value in data set [1] was in the range of 8 to 16 mg/L. Further, the MIC in data set [2] is given as 16 mg/L (≈ 10.1 µM); in data set [3] (clinical isolates, 16 h), 16 mg/L (≈ 10.1 µM); in data set [3] (setting [6]), 16 mg/L (≈ 10.1 µM); in data set [3] (setting [7]), 16 mg/L (≈ 10.1 µM); in data set [3] (setting [8]), 16 mg/L (≈ 10.1 µM); in data set [4] (isolate Candida tropicalis 1), 16 mg/L (≈ 10.1 µM). The MIC in data set [4] (isolate Candida tropicalis 2), in data set [4] (isolate Candida tropicalis 3), in data set [4] (isolate Candida tropicalis 4), in data set [4] (isolate Candida tropicalis 5), in data set [4] (isolate Candida tropicalis 6) and in data set [4] (isolate Candida tropicalis 7) was 16 mg/L (≈ 10.1 µM) throughout. Also, the MIC in data set [4] (isolate Candida tropicalis 8), in data set [4] (isolate Candida tropicalis 9) and in data set [4] (isolate Candida tropicalis 10) was 16 mg/L (≈ 10.1 µM) throughout. The compound also had a hemolysis in the data set with rabbit erythrocytes (5 µM) of 0.1%.
On to `CCCCCCCCCCCCCC(=O)N[C@@H](Cc1c[nH]c2ccccc12)C(=O)N[C@H](C(=O)N[C@H](C(=O)N[C@@H](CCCCN)C(=O)N[C@@H](CCCCN)C(=O)N[C@H](C(=O)N[C@@H](CCCCN)C(=O)NCC(=O)N[C@@H](CC(C)C)C(=O)N[C@@H](CC(C)C)C(=O)N[C@@H](CCCCN)C(=O)O)C(C)C)C(C)C)C(C)C` [Myr-C] (Myristoyl-WVVKKVKGLLK-OH; C-terminus assumed), for which the MIC in data set [1] is listed as 32 mg/L (≈ 21.2 µM); in data set [2], 32 mg/L (≈ 21.2 µM); in data set [3] (clinical isolates, 16 h), 32 mg/L (≈ 21.2 µM); in data set [3] (setting [6]), 32 mg/L (≈ 21.2 µM); in data set [3] (setting [7]), 32 mg/L (≈ 21.2 µM); in data set [3] (setting [8]), 32 mg/L (≈ 21.2 µM). Further, the MIC in data set [4] (isolate Candida tropicalis 1), in data set [4] (isolate Candida tropicalis 2), in data set [4] (isolate Candida tropicalis 3), in data set [4] (isolate Candida tropicalis 4), in data set [4] (isolate Candida tropicalis 5) and in data set [4] (isolate Candida tropicalis 6) was 16 mg/L (≈ 10.6 µM) each time. Further, the MIC in data set [4] (isolate Candida tropicalis 7), in data set [4] (isolate Candida tropicalis 8), in data set [4] (isolate Candida tropicalis 9) and in data set [4] (isolate Candida tropicalis 10) was 16 mg/L (≈ 10.6 µM) throughout. The MIC90 in data set [1] amounted to 32 mg/L (≈ 21.2 µM); in data set [2], 32 mg/L (≈ 21.2 µM); in data set [3] (clinical isolates, 16 h) it was 32 mg/L (≈ 21.2 µM); in data set [4], 16 mg/L (≈ 10.6 µM). Further, the hemolysis in the data set on rabbit erythrocytes (50 µM) is reported as 28.5%.

Usually MIC stands for the lowest concentration that inhibits growth of the organism. As usually defined, the MIC90 is an inhibitory concentration at the 90% level, which refers to growth in some studies and to a panel of isolates in others. The low end stands for greater potency, the high end for weaker potency.
